In this assay the target is T1, LRRK2 R1441C (Homo sapiens, UniProt Q5S007, R1441C).
T1 construct: purchased Thermo Fisher Scientific (Life Technologies) SelectScreen
Nature of the assay: SelectScreen Adapta. The format is biochemical. The procedure: The in vitro kinase selectivity of NU5455 was determined using the SelectScreen Broad Assay Panel (Thermo Fisher Scientific) involving activity and binding assays (Supplemental Table 1). […] Class IA PI3Ks were measured using the p85α subunit.
Kinase [ATP] % Assay Kinase [ATP] % Assay Kinase [ATP] % Assay Kinase [ATP] % Assay […]
SGK (SGK1) Km app 8.5 Z MAP4K2 (GCK) Km app 2.7 Z TLK2 n/a -0.3 L STK38 (NDR) n/a -5.9 L
MERTK (cMER) Km app 8.3 Z CDK2/cyclin A Km app 2.7 Z TGFBR1 (ALK5) n/a -0.4 L MATK (HYL) Km app -6.3 Z
FYN Km app 8.3 Z EPHA1 Km app 2.7 Z CLK3 Km app -0.5 Z ABL1 E255K Km app -6.6 Z
TEC n/a 8.1 L CDK2/cyclin E1 n/a 2.7 L MAP3K14 (NIK) n/a -0.5 L STK17A (DRAK1) n/a -6.6 L
KIT V654A n/a 8.1 L TESK2 n/a 2.7 L AKT3 (PKB gamma) Km app -0.5 Z JAK2 JH1 JH2 Km app -6.7 Z
ROS1 Km app 8.0 Z SPHK1 Km app 2.7 A MAP3K9 (MLK1) Km app -0.5 Z PRKACB (PRKAC beta) n/a -6.8 L
FGFR3 K650E Km app 7.9 Z AMPK A2/B1/G1 Km app 2.6 Z IKBKB (IKK beta) Km app -0.6 Z PDGFRA (PDGFR alpha) Km app -6.8 Z
RAF1 (cRAF) Y340D Y341D 100 7.9 Z DYRK3 Km app 2.6 Z CAMK2A (CaMKII alpha) Km app -0.6 Z NEK9 Km app -7.2 Z
PI4KA (PI4K alpha) 10 7.8 A CSNK1D (CK1 delta) Km app 2.6 Z PRKCB1 (PKC beta I) Km app -0.7 Z PDK1 Km app -7.3 Z
HIPK2 Km app 7.8 Z ACVR2A n/a 2.5 L TTK n/a -0.7 L RPS6KB1 (p70S6K) Km app -7.8 Z
CSK Km app 7.6 Z DDR2 T654M n/a 2.5 L ZAK n/a -0.7 L STK38L (NDR2) n/a -8.4 L
PRKCG (PKC gamma) Km app 7.6 Z JAK2 Km app 2.5 Z IKBKE (IKK epsilon) Km app -0.7 Z ABL1 G250E Km app -8.5 Z
SRMS (Srm) Km app 7.5 Z HIPK3 (YAK1) Km app 2.5 Z CAMK2G (CaMKII gamma) n/a -0.8 L PRKD1 (PKC mu) Km app -8.5 Z
YES1 Km app 7.4 Z AMPK (A1/B1/G2) n/a 2.4 L TLK1 n/a -0.8 L CDK5/p35 Km app -8.6 Z
RPS6KA5 (MSK1) Km app 7.4 Z MYO3B (MYO3 beta) n/a 2.3 L MAPK12 (p38 gamma) Km app -0.8 Z PDGFRA T674I Km app -8.9 Z
TNIK n/a 7.3 L PASK Km app 2.3 Z PRKCI (PKC iota) Km app -0.8 Z BLK Km app -8.9 Z
FER Km app 7.1 Z ACVRL1 (ALK1) n/a 2.3 L PKN2 (PRK2) n/a -1.0 L PRKD2 (PKD2) Km app -9.1 Z
CDK16 (PCTK1)/cyclin Y n/a 7.0 L EGFR (ErbB1) L861Q Km app 2.2 Z PIM1 Km app -1.0 Z CSNK1G2 (CK1 gamma 2) Km app -9.3 Z
MST4 Km app 6.9 Z RPS6KA3 (RSK2) Km app 2.1 Z CDK5/p25 Km app -1.1 Z ROCK1 Km app -9.5 Z
FLT1 (VEGFR1) Km app 6.5 Z STK23 (MSSK1) Km app 2.0 Z SRPK1 Km app -1.1 Z PRKCB2 (PKC beta II) Km app -9.6 Z
DYRK1A Km app 6.4 Z ALK R1275Q n/a 2.0 L BRSK1 (SAD1) Km app -1.1 Z CSNK1G1 (CK1 gamma 1) Km app -9.9 Z
PRKCD (PKC delta) Km app 6.2 Z TBK1 Km app 2.0 Z MAP3K3 (MEKK3) n/a -1.1 L ABL2 (Arg) Km app -10.3 Z
EGFR (ErbB1) Km app 6.0 Z ACVR1B (ALK4) Km app 2.0 Z AMPK A1/B1/G1 Km app -1.2 Z STK3 (MST2) Km app -10.3 Z
CDC7/DBF4 n/a 6.0 L CDK3/cyclin E1 n/a 1.9 L WNK3 n/a -1.2 L CAMK4 (CaMKIV) Km app -10.4 Z
JAK3 Km app 6.0 Z KDR (VEGFR2) Km app 1.8 Z LATS1 n/a -1.3 L MKNK1 (MNK1) Km app -10.7 Z
MAPK13 (p38 delta) Km app 5.8 Z ULK1 n/a 1.8 L DMPK n/a -1.5 L FLT3 ITD n/a -11.6 L
FRAP1 (mTOR) Km app 5.7 Z AURKB (Aurora B) Km app 1.7 Z CDK2/cyclin A1 n/a -1.6 L CHEK2 (CHK2) Km app -11.7 Z
KIT Y823D n/a 5.6 L LRRK2 Km app 1.7 A LIMK1 n/a -1.7 L LTK (TYK1) Km app -13.1 Z
ITK Km app 5.5 Z MAP2K3 (MEK3) n/a 1.6 L DYRK1B Km app -1.8 Z JAK2 JH1 JH2 V617F Km app -13.8 Z
KIT Km app 5.3 Z DAPK1 Km app 1.6 A DDR1 n/a -1.8 L EPHA8 Km app -13.8 Z
CDK7/cyclin H/MNAT1 Km app 5.3 A EPHA6 n/a 1.6 L BTK Km app -2.0 Z EGFR (ErbB1) T790M L858R Km app -14.1 Z
RET Km app 5.2 Z MAP4K1 (HPK1) n/a 1.6 L ADRBK1 (GRK2) Km app -2.0 Z MET M1250T Km app -14.5 Z […]

T1 sequence (Q5S007 whole entry R1441C): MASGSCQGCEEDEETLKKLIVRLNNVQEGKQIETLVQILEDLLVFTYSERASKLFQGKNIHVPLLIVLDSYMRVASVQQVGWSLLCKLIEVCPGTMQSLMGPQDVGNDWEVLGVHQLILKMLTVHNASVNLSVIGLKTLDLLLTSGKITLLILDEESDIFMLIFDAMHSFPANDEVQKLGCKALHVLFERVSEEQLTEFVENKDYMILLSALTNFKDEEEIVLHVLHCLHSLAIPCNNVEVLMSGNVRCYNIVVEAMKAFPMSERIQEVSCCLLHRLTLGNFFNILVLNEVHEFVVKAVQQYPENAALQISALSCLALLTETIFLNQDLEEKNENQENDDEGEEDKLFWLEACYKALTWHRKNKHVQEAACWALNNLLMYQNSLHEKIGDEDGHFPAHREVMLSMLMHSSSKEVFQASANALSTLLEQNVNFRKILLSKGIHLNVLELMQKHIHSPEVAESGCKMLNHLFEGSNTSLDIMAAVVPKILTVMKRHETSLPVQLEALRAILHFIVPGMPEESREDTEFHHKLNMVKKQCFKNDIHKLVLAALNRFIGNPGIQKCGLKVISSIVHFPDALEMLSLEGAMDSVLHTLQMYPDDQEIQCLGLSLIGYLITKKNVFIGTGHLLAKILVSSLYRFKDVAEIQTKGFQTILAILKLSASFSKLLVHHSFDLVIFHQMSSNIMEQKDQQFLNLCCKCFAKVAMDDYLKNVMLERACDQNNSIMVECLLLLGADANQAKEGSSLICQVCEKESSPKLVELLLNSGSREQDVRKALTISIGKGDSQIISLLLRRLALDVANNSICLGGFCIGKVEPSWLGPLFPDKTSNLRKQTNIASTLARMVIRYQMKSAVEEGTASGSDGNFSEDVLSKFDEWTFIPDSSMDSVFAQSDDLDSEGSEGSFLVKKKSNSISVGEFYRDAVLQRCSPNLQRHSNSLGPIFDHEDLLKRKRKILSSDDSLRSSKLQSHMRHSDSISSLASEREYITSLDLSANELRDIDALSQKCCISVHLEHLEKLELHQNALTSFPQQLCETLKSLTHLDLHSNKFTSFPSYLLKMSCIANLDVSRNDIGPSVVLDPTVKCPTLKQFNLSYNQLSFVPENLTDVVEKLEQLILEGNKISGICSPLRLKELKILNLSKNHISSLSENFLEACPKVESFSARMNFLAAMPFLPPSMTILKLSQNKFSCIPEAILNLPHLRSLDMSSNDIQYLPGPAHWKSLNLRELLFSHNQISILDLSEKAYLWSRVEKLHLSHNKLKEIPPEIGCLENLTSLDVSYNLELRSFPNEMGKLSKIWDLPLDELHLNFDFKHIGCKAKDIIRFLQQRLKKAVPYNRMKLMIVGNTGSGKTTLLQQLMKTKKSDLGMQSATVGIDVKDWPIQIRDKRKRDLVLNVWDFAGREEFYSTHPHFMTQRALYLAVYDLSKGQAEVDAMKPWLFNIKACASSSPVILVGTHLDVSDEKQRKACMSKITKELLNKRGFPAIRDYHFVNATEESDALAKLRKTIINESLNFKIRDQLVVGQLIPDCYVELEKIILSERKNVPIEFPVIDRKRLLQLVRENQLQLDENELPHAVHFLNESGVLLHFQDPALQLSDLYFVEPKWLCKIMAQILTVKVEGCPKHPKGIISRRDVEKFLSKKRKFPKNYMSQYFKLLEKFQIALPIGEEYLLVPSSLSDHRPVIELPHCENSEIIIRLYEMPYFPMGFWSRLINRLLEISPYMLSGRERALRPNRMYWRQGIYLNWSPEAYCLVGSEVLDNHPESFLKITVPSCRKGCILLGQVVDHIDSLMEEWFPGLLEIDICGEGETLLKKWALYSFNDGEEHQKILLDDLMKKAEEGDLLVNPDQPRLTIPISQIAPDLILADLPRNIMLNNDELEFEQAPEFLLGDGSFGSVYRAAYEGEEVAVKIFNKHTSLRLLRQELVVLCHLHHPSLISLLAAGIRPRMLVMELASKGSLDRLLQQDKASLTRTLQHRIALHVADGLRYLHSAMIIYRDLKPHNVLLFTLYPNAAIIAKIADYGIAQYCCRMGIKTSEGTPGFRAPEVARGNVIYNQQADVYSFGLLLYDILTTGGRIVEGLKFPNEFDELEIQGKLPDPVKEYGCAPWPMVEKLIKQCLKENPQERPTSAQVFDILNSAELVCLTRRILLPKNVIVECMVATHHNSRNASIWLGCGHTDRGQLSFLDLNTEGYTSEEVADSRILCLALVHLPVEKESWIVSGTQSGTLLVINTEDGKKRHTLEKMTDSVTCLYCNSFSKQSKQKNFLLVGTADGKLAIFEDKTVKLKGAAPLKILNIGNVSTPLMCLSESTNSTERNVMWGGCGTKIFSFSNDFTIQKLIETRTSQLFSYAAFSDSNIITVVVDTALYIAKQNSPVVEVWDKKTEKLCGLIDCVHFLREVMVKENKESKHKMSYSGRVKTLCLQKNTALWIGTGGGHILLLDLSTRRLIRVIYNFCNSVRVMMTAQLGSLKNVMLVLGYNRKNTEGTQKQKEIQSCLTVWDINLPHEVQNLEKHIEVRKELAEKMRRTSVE

With `CN(C(=O)CN1CCOCC1)c1ccc2sc3c(-c4cccc5c(=O)cc(N6CC7CCC(C6)O7)oc45)cccc3c2c1` [NU5455], the inhibition at 1 µM is 1.8%.

Values taken from PMC6934184, “Selective DNA-PKcs inhibition extends the therapeutic index of localized radiotherapy and chemotherapy” (The Journal of Clinical Investigation, 2019).
